Source: patent US10294202B2, “Pyrrolidinones as herbicides” (FMC Corporation, priority 2013, dated 2019)

Legend:
wheat = test: Test A pre-/postemergence herbicide test; format: in vivo, Triticum aestivum
How it was run: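 Both application timings used compounds in a non-phytotoxic solvent plus surfactant. Pre-emergence: soil sprayed directly after seeding into loam/sand. Post-emergence: foliage of 2–10 cm seedlings (1–2 leaves) sprayed. Injury rated ~10 days later, 0–100.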

sedge, umbrella = test: Test B flooded paddy test; format: in vivo, Cyperus difformis; details: Flood, scale of 0 to 100 where 0 is no effect and 100 is complete control
How it was run: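 In-water application to pots flooded 3 cm deep, plants at 2-leaf stage. Held in greenhouse 13–15 days at constant flood depth. Scored 0–100 by eye against controls.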

blackgrass = test: Test C pre-/postemergence herbicide test; format: in vivo, Alopecurus myosuroides; details: for Blackgrass plant response rating: scale 0 to 100, 0 is no effect and 100 is complete control
How it was run: (§1)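 Herbicidal effect was judged by eye 13 to 15 days after treatment in the greenhouse, using a 0–100 scale against controls. Chemicals in a non-phytotoxic solvent with surfactant were sprayed onto planted loam/sand soil or onto plants 2 to 18 cm tall in a peat-based growing medium.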

wheat (winter wheat) = test: Test C pre-/postemergence herbicide test; format: in vivo, Triticum aestivum; details: for Wheat plant response rating: scale 0 to 100, 0 is no effect and 100 is complete control
How it was run: as §1

galium = test: Test C pre-/postemergence herbicide test; format: in vivo, Galium aparine; details: Preemergence; for Galium plant response rating: 31 g ai/ha, scale 0 to 100, 0 is no effect and 100 is complete control; for Plant response rating (scale of 0 to 100), Galium: 250 g ai/ha
How it was run: as §1

crabgrass, large = test: Test C pre-/postemergence herbicide test; format: in vivo, Digitaria sanguinalis; details: for Crabgrass, Large plant response rating: scale 0 to 100, 0 is no effect and 100 is complete control
How it was run: as §1

johnsongrass = test: Test C pre-/postemergence herbicide test; format: in vivo, Sorghum halepense; details: for Johnsongrass plant response rating: scale 0 to 100, 0 is no effect and 100 is complete control
How it was run: as §1

lambsquarters = test: Test C pre-/postemergence herbicide test; format: in vivo, Chenopodium album
How it was run: as §1

morningglory = test: Test C pre-/postemergence herbicide test; format: in vivo, Ipomoea coccinea; details: for Morningglory plant response rating: scale 0 to 100, 0 is no effect and 100 is complete control
How it was run: as §1

pigweed = test: Test C pre-/postemergence herbicide test; format: in vivo, Amaranthus retroflexus; details: for Pigweed plant response rating: scale 0 to 100, 0 is no effect and 100 is complete control
How it was run: as §1

waterhemp = test: Test C pre-/postemergence herbicide test; format: in vivo, Amaranthus rudis; details: for Waterhemp plant response rating: scale 0 to 100, 0 is no effect and 100 is complete control
How it was run: as §1

[1] = Postemergence, 125 g ai/ha, 0 to 100 scale, 0 no effect, 100 complete control
[2] = Preemergence, 62 g ai/ha, scale 0 to 100
[3] = Preemergence, 125 g ai/ha, scale 0 to 100 (0 no effect, 100 complete control)
[4] = 125 g ai/ha, scale 0 to 100 (0 no effect, 100 complete control)
[5] = Postemergence, 31 g ai/ha, scale 0 to 100 (0 no effect, 100 complete control)
[6] = Postemergence, 62 g ai/ha, scale 0 (no effect) to 100 (complete control)
[7] = Postemergence, 125 g ai/ha, scale 0 to 100 (0 no effect, 100 complete control)
[8] = Postemergence, 250 g ai/ha, scale 0 to 100 (0 no effect, 100 complete control)

## O=C1NCC(c2ccc(F)c(C(F)(F)F)c2)C1C(=O)Nc1ccccc1C(F)(F)F (racemic) [Compound 78]
wheat; [1]
  Plant response rating, Wheat: 40
wheat; Postemergence, 500 g ai/ha, 0 to 100 scale (0 no effect, 100 complete control)
  Plant response rating, Wheat: 50
wheat; Preemergence, 125 g ai/ha, visual rating on 0 to 100 scale (0 no effect, 100 complete control)
  Wheat plant response rating: 0
wheat; preemergence, 500 g ai/ha, 0 to 100 scale
  Plant response rating, Wheat: 0
sedge, umbrella; 250 g ai/ha
  Plant response rating, Sedge, Umbrella: 0
blackgrass; Preemergence, 31 g ai/ha
  Blackgrass plant response rating: 30
blackgrass; [2]
  Plant response rating, Blackgrass: 75
blackgrass; [3]
  Plant response rating, Blackgrass: 75
blackgrass; Preemergence, 250 g ai/ha
  Plant response rating (scale of 0 to 100), Blackgrass: 85
Wheat (winter wheat); Preemergence, 31 g ai/ha
  Wheat plant response rating: 10
Wheat (winter wheat); [2]
  Plant response rating, Wheat: 30
Wheat (winter wheat); [3]
  Plant response rating, Wheat: 60
Wheat (winter wheat); Preemergence, 250 g ai/ha
  Plant response rating (scale of 0 to 100), Wheat: 90
galium
  Galium plant response rating: 50
  Plant response rating (scale of 0 to 100), Galium: 85
galium; 62 g ai/ha, scale 0 to 100
  Plant response rating, Galium: 50
galium; [4]
  Plant response rating, Galium: 60
crabgrass, large; Preemergence, 31 g ai/ha
  Crabgrass, Large plant response rating: 95
crabgrass, large; [2]
  Plant response rating, Crabgrass, Large: 98
crabgrass, large; [3]
  Plant response rating, Crabgrass, Large: 98
crabgrass, large; Preemergence, 250 g ai/ha
  Plant response rating (scale of 0 to 100), Crabgrass, Large: 98
johnsongrass; Preemergence, 31 g ai/ha
  Johnsongrass plant response rating: 0
johnsongrass; [2]
  Plant response rating, Johnsongrass: 0
johnsongrass; [3]
  Plant response rating, Johnsongrass: 15
johnsongrass; Preemergence, 250 g ai/ha
  Plant response rating (scale of 0 to 100), Johnsongrass: 60
lambsquarters; [2]
  Plant response rating, Lambsquarters: 40
lambsquarters; [3]
  Plant response rating, Lambsquarters: 85
lambsquarters; Preemergence, 250 g ai/ha
  Plant response rating (scale of 0 to 100), Lambsquarters: 85
morningglory; Preemergence, 31 g ai/ha
  Morningglory plant response rating: 0
morningglory; [2]
  Plant response rating, Morningglory: 0
morningglory; [3]
  Plant response rating, Morningglory: 0
morningglory; Preemergence, 250 g ai/ha
  Plant response rating (scale of 0 to 100), Morningglory: 0
pigweed; Preemergence, 31 g ai/ha
  Pigweed plant response rating: 0
pigweed; [2]
  Plant response rating, Pigweed: 40
pigweed; [3]
  Plant response rating, Pigweed: 40
pigweed; Preemergence, 250 g ai/ha
  Plant response rating (scale of 0 to 100), Pigweed: 40
waterhemp; Preemergence, 31 g ai/ha
  Waterhemp plant response rating: 50
waterhemp; [2]
  Plant response rating, Waterhemp: 75
waterhemp; [3]
  Plant response rating, Waterhemp: 85
waterhemp; Preemergence, 250 g ai/ha
  Plant response rating (scale of 0 to 100), Waterhemp: 85

## O=C1NCC(c2ccc(F)cc2)C1C(=O)Nc1cccc(F)c1F (racemic) [Compound 119]
wheat; [1]
  Plant response rating, Wheat: 20
wheat; Postemergence, 500 g ai/ha
  Wheat plant response rating (0 to 100 scale, 0 is no effect, 100 is complete control): 70
sedge, umbrella; 500 g ai/ha
  Plant response rating, Sedge, Umbrella: 0
blackgrass; [5]
  Plant response rating, Blackgrass: 0
blackgrass; [6]
  Plant response rating, Blackgrass: 0
blackgrass; [7]
  Plant response rating, Blackgrass: 0
blackgrass; [8]
  Plant response rating, Blackgrass: 0
blackgrass; Preemergence, 31 g ai/ha
  Blackgrass plant response rating: 0
blackgrass; [2]
  Plant response rating, Blackgrass: 70
blackgrass; [3]
  Plant response rating, Blackgrass: 80
blackgrass; Preemergence, 250 g ai/ha
  Plant response rating (scale of 0 to 100), Blackgrass: 85
Wheat (winter wheat); [5]
  Plant response rating, Wheat: 0
Wheat (winter wheat); [6]
  Plant response rating, Wheat: 0
Wheat (winter wheat); [7]
  Plant response rating, Wheat: 0
Wheat (winter wheat); [8]
  Plant response rating, Wheat: 0
Wheat (winter wheat); Preemergence, 31 g ai/ha
  Wheat plant response rating: 5
Wheat (winter wheat); [2]
  Plant response rating, Wheat: 5
Wheat (winter wheat); [3]
  Plant response rating, Wheat: 60
Wheat (winter wheat); Preemergence, 250 g ai/ha
  Plant response rating (scale of 0 to 100), Wheat: 90
galium
  Galium plant response rating: 80
  Plant response rating (scale of 0 to 100), Galium: 90
galium; 62 g ai/ha, scale 0 to 100
  Plant response rating, Galium: 80
galium; [4]
  Plant response rating, Galium: 85
crabgrass, large; [5]
  Plant response rating, Crabgrass, Large: 55
crabgrass, large; [6]
  Plant response rating, Crabgrass, Large: 65
crabgrass, large; [7]
  Plant response rating, Crabgrass, Large: 80
crabgrass, large; [8]
  Plant response rating, Crabgrass, Large: 90
crabgrass, large; Preemergence, 31 g ai/ha
  Crabgrass, Large plant response rating: 98
crabgrass, large; [2]
  Plant response rating, Crabgrass, Large: 98
crabgrass, large; [3]
  Plant response rating, Crabgrass, Large: 100
crabgrass, large; Preemergence, 250 g ai/ha
  Plant response rating (scale of 0 to 100), Crabgrass, Large: 100
johnsongrass; [5]
  Plant response rating, Johnsongrass: 0
johnsongrass; [6]
  Plant response rating, Johnsongrass: 0
johnsongrass; [7]
  Plant response rating, Johnsongrass: 0
johnsongrass; [8]
  Plant response rating, Johnsongrass: 5
johnsongrass; Preemergence, 31 g ai/ha
  Johnsongrass plant response rating: 0
johnsongrass; [2]
  Plant response rating, Johnsongrass: 0
johnsongrass; [3]
  Plant response rating, Johnsongrass: 30
johnsongrass; Preemergence, 250 g ai/ha
  Plant response rating (scale of 0 to 100), Johnsongrass: 70
lambsquarters; [5]
  Plant response rating, Lambsquarters: 5
lambsquarters; [6]
  Plant response rating, Lambsquarters: 50
lambsquarters; [7]
  Plant response rating, Lambsquarters: 75
lambsquarters; [8]
  Plant response rating, Lambsquarters: 70
lambsquarters; Preemergence, 31 g ai/ha, scale 0 to 100, 0 is no effect and 100 is complete control
  Lambsquarters plant response rating: 25
lambsquarters; [2]
  Plant response rating, Lambsquarters: 60
lambsquarters; [3]
  Plant response rating, Lambsquarters: 85
lambsquarters; Preemergence, 250 g ai/ha
  Plant response rating (scale of 0 to 100), Lambsquarters: 85
morningglory; [5]
  Plant response rating, Morningglory: 0
morningglory; [6]
  Plant response rating, Morningglory: 0
morningglory; [7]
  Plant response rating, Morningglory: 5
morningglory; [8]
  Plant response rating, Morningglory: 5
morningglory; Preemergence, 31 g ai/ha
  Morningglory plant response rating: 0
morningglory; [2]
  Plant response rating, Morningglory: 0
morningglory; [3]
  Plant response rating, Morningglory: 35
morningglory; Preemergence, 250 g ai/ha
  Plant response rating (scale of 0 to 100), Morningglory: 35
pigweed; [5]
  Plant response rating, Pigweed: 10
pigweed; [6]
  Plant response rating, Pigweed: 10
pigweed; [7]
  Plant response rating, Pigweed: 15
pigweed; [8]
  Plant response rating, Pigweed: 25
pigweed; Preemergence, 31 g ai/ha
  Pigweed plant response rating: 30
pigweed; [2]
  Plant response rating, Pigweed: 60
pigweed; [3]
  Plant response rating, Pigweed: 75
pigweed; Preemergence, 250 g ai/ha
  Plant response rating (scale of 0 to 100), Pigweed: 85
waterhemp; [5]
  Plant response rating, Waterhemp: 0
waterhemp; [6]
  Plant response rating, Waterhemp: 0
waterhemp; [7]
  Plant response rating, Waterhemp: 0
waterhemp; [8]
  Plant response rating, Waterhemp: 40
waterhemp; Preemergence, 31 g ai/ha
  Waterhemp plant response rating: 20
waterhemp; [2]
  Plant response rating, Waterhemp: 65
waterhemp; [3]
  Plant response rating, Waterhemp: 70
waterhemp; Preemergence, 250 g ai/ha
  Plant response rating (scale of 0 to 100), Waterhemp: 80
